# In patent US12410208B2, “(2-acetamidyl)thio-beta-D-galactopyranoside derivatives” (Idorsia Pharmaceuticals Ltd, priority 2020, dated 2025):
# Like-named read-outs stand apart in the source and are kept apart here.
# What was measured:
# [1] = target: biotinylated human Gal-3 (hGal-3) (Homo sapiens, UniProt P17931); experiment: Competitive binding assay: biotinylated hGal-3 binding to microplate-adsorbed asialofetuin (ASF), spectrophotometric
# Outline: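 Serially diluted compounds competed with asialofetuin on the plate for biotinylated human Gal-3 during a 3 h incubation at 4° C. Streptavidin-peroxidase with ABTS gave the spectrophotometric signal. IC50 values were averaged over repeat runs.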
# human Gal-1 (hGal-1) = human Gal-1 (hGal-1) (Homo sapiens, UniProt P09382); experiment: Competitive binding assay: biotinylated hGal-1 binding to microplate-adsorbed asialofetuin (ASF), spectrophotometric; conditions: hGal-1 binding to asialofetuin; Table 15; R and S epimers of selected Examples also listed; read-out: IC50 (Galectin-1 inhibition)
# Outline: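 Spectrophotometric competition readout with ABTS after streptavidin-peroxidase (80 ng/mL, 1 h, 4 °C) detection of bound biotinylated hGal-1.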
# [2] = Gal-3 inhibition, Table 5, read-out: IC50
# [3] = Table 12, hGal-3, read-out: IC50 (Gal-3 inhibition)
# [4] = Table 10, hGal-3, read-out: IC50 (Gal-3 inhibition)
# Sequence of biotinylated human Gal-3 (hGal-3) (P17931 whole entry): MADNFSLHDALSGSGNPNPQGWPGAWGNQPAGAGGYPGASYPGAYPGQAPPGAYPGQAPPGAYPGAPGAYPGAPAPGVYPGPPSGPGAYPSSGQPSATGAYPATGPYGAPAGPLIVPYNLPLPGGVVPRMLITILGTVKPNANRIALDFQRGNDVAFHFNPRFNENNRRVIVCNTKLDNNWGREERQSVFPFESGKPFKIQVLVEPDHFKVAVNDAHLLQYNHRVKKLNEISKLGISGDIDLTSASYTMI
# Sequence of human Gal-1 (hGal-1) (P09382 whole entry): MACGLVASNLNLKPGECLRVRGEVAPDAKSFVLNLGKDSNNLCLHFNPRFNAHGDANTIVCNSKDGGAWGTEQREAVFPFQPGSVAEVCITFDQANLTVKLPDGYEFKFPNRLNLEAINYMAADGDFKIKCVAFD
Compound,"IC50 [1, 2] [nM]",IC50 (human Gal-1 (hGal-1)) [nM],"IC50 [1, 3] [nM]","IC50 ([1]; Gal-3 inhibition, Table 14, read-out: IC50) [nM]","IC50 [1, 4] [nM]"
"CN(C(=O)C(S[C@@H]1O[C@H](CO)[C@H](O)[C@H](n2cc(-c3cc(F)c(F)c(F)c3)nn2)[C@H]1O)C1(O)CCC(F)(F)CC1)C1CC1 (stereo partly drawn) [Example 2.44.221., N-Cyclopropyl-2-(4,4-difluoro-1-hydroxycyclohexyl)-2-(((2S,3R,4S,5R,6R)-3,5-dihydroxy-6-(hydroxymethyl)-4-(4-(3,4,5-trifluorophenyl)-1H-1,2,3-triazol-1-yl)tetrahydro-2H-pyran-2-yl)thio)-N-methylacetamide]",30,60,,,
"CO[C@@H]1[C@@H](n2cc(-c3cc(F)c(F)c(F)c3)nn2)[C@@H](O)[C@@H](CO)O[C@H]1SC(C(=O)N(C)CC(C)(C)F)C1(O)CCC(F)(F)CC1 (stereo partly drawn) [Example 2.44.222.1., 2-(4,4-Difluoro-1-hydroxycyclohexyl)-N-(2-fluoro-2-methylpropyl)-2-(((2S,3R,4S,5R,6R)-5-hydroxy-6-(hydroxymethyl)-3-methoxy-4-(4-(3,4,5-trifluorophenyl)-1H-1,2,3-triazol-1-yl)tetrahydro-2H-pyran-2-yl)thio)-N-methylacetamide]",,220,50,,
"CO[C@@H]1[C@@H](n2cc(-c3cc(F)c(F)c(F)c3)nn2)[C@@H](O)[C@@H](CO)O[C@H]1S[C@@H](C(=O)N(C)CC(C)(C)F)C1(O)CCC(F)(F)CC1 [Example 2.44.222R.I., (R)-2-(4,4-Difluoro-1-hydroxycyclohexyl)-N-(2-fluoro-2-methylpropyl)-2-(((2S,3R,4S,5R,6R)-5-hydroxy-6-(hydroxymethyl)-3-methoxy-4-(4-(3,4,5-trifluorophenyl)-1H-1,2,3-triazol-1-yl)tetrahydro-2H-pyran-2-yl)thio)-N-methylacetamide]",,8780,7900,,
"CO[C@@H]1[C@@H](n2cc(-c3cc(F)c(F)c(F)c3)nn2)[C@@H](O)[C@@H](CO)O[C@H]1S[C@H](C(=O)N(C)CC(C)(C)F)C1(O)CCC(F)(F)CC1 [Example 2.44.222S.I., (S)-2-(4,4-Difluoro-1-hydroxycyclohexyl)-N-(2-fluoro-2-methylpropyl)-2-(((2S,3R,4S,5R,6R)-5-hydroxy-6-(hydroxymethyl)-3-methoxy-4-(4-(3,4,5-trifluorophenyl)-1H-1,2,3-triazol-1-yl)tetrahydro-2H-pyran-2-yl)thio)-N-methylacetamide]",,70,10,,
"CN(CC1(F)CCCC1)C(=O)C(S[C@@H]1O[C@H](CO)[C@H](O)[C@H](n2cc(-c3cc(F)c(F)c(F)c3)nn2)[C@H]1O)C1(O)CCC(F)(F)CC1 (stereo partly drawn) [Example 2.44.223R., 2-(4,4-Difluoro-1-hydroxycyclohexyl)-2-(((2S,3R,4S,5R,6R)-3,5-dihydroxy-6-(hydroxymethyl)-4-(4-(3,4,5-trifluorophenyl)-1H-1,2,3-triazol-1-yl)tetrahydro-2H-pyran-2-yl)thio)-N-((1-fluorocyclopentyl)methyl)-N-methylacetamide]",3570,13400,,,
"CN(CC1(F)CCCC1)C(=O)[C@@H](S[C@@H]1O[C@H](CO)[C@H](O)[C@H](n2cc(-c3cc(F)c(F)c(F)c3)nn2)[C@H]1O)C1(O)CCC(F)(F)CC1 [Example 2.44.223S., (S)-2-(4,4-Difluoro-1-hydroxycyclohexyl)-2-(((2S,3R,4S,5R,6R)-3,5-dihydroxy-6-(hydroxymethyl)-4-(4-(3,4,5-trifluorophenyl)-1H-1,2,3-triazol-1-yl)tetrahydro-2H-pyran-2-yl)thio)-N-((1-fluorocyclopentyl)methyl)-N-methylacetamide]",70,80,,,
"CN(CCC(C)(C)C)C(=O)C(S[C@@H]1O[C@H](CO)[C@H](O)[C@H](n2cc(-c3cc(F)c(F)c(F)c3)nn2)[C@H]1O)C1(O)CCC(F)(F)CC1 (stereo partly drawn) [Example 2.44.225., 2-(4,4-Difluoro-1-hydroxycyclohexyl)-2-(((2S,3R,4S,5R,6R)-3,5-dihydroxy-6-(hydroxymethyl)-4-(4-(3,4,5-trifluorophenyl)-1H-1,2,3-triazol-1-yl)tetrahydro-2H-pyran-2-yl)thio)-N-(3,3-dimethylbutyl)-N-methylacetamide]",70,150,,,
"CO[C@@H]1[C@@H](n2cc(-c3cc(F)c(F)c(F)c3)nn2)[C@@H](O)[C@@H](CO)O[C@H]1SC(C(=O)N(C)CCC(C)(C)C)C1(O)CCC(F)(F)CC1 (stereo partly drawn) [Example 2.44.225.I., 2-(4,4-Difluoro-1-hydroxycyclohexyl)-N-(3,3-dimethylbutyl)-2-(((2S,3R,4S,5R,6R)-5-hydroxy-6-(hydroxymethyl)-3-methoxy-4-(4-(3,4,5-trifluorophenyl)-1H-1,2,3-triazol-1-yl)tetrahydro-2H-pyran-2-yl)thio)-N-methylacetamide]",,120,100,,
"O=C(C(S[C@@H]1O[C@H](CO)[C@H](O)[C@H](n2cc(-c3cc(F)c(F)c(F)c3)nn2)[C@H]1O)C1(O)CCC(F)(F)CC1)N1CCC(F)(F)CC1 (stereo partly drawn) [Example 2.44.226., 2-(4,4-Difluoro-1-hydroxycyclohexyl)-1-(4,4-difluoropiperidin-1-yl)-2-(((2S,3R,4S,5R,6R)-3,5-dihydroxy-6-(hydroxymethyl)-4-(4-(3,4,5-trifluorophenyl)-1H-1,2,3-triazol-1-yl)tetrahydro-2H-pyran-2-yl)thio)ethan-1-one]",90,110,,,
"CCO[C@@H]1[C@@H](n2cc(-c3cc(F)c(F)c(F)c3)nn2)[C@@H](O)[C@@H](CO)O[C@H]1SC(C(=O)N1CCC(F)(F)CC1)C1(O)CCC(F)(F)CC1 (stereo partly drawn) [Example 2.44.226.II., 2-(4,4-Difluoro-1-hydroxycyclohexyl)-1-(4,4-difluoropiperidin-1-yl)-2-(((2S,3R,4S,5R,6R)-3-ethoxy-5-hydroxy-6-(hydroxymethyl)-4-(4-(3,4,5-trifluorophenyl)-1H-1,2,3-triazol-1-yl)tetrahydro-2H-pyran-2-yl)thio)ethan-1-one]",,100,,100,
"CO[C@@H]1[C@@H](n2cc(-c3cc(F)c(F)c(F)c3)nn2)[C@@H](O)[C@@H](CO)O[C@H]1S[C@@H](C(=O)N1CCC(F)(F)CC1)C1(O)CCC(F)(F)CC1 [Example 2.44.226R.I., (R)-2-(4,4-difluoro-1-hydroxycyclohexyl)-1-(4,4-difluoropiperidin-1-yl)-2-(((2S,3R,4S,5R,6R)-5-hydroxy-6-(hydroxymethyl)-3-methoxy-4-(4-(3,4,5-trifluorophenyl)-1H-1,2,3-triazol-1-yl)tetrahydro-2H-pyran-2-yl)thio)ethan-1-one]",,5730,890,,
"CO[C@@H]1[C@@H](n2cc(-c3cc(F)c(F)c(F)c3)nn2)[C@@H](O)[C@@H](CO)O[C@H]1S[C@H](C(=O)N1CCC(F)(F)CC1)C1(O)CCC(F)(F)CC1 [Example 2.44.226S.I., (S)-2-(4,4-difluoro-1-hydroxycyclohexyl)-1-(4,4-difluoropiperidin-1-yl)-2-(((2S,3R,4S,5R,6R)-5-hydroxy-6-(hydroxymethyl)-3-methoxy-4-(4-(3,4,5-trifluorophenyl)-1H-1,2,3-triazol-1-yl)tetrahydro-2H-pyran-2-yl)thio)ethan-1-one]",,70,50,,
"O=C([C@H](S[C@@H]1O[C@H](CO)[C@H](O)[C@H](n2cc(-c3cc(F)c(F)c(F)c3)nn2)[C@H]1O)C1(O)CCC(F)(F)CC1)N1CC(F)(F)C1 [Example 2.44.227R., (R)-2-(4,4-Difluoro-1-hydroxycyclohexyl)-1-(3,3-difluoroazetidin-1-yl)-2-(((2S,3R,4S,5R,6R)-3,5-dihydroxy-6-(hydroxymethyl)-4-(4-(3,4,5-trifluorophenyl)-1H-1,2,3-triazol-1-yl)tetrahydro-2H-pyran-2-yl)thio)ethan-1-one]",1050,5130,,,
"O=C([C@@H](S[C@@H]1O[C@H](CO)[C@H](O)[C@H](n2cc(-c3cc(F)c(F)c(F)c3)nn2)[C@H]1O)C1(O)CCC(F)(F)CC1)N1CC(F)(F)C1 [Example 2.44.227S., (S)-2-(4,4-Difluoro-1-hydroxycyclohexyl)-1-(3,3-difluoroazetidin-1-yl)-2-(((2S,3R,4S,5R,6R)-3,5-dihydroxy-6-(hydroxymethyl)-4-(4-(3,4,5-trifluorophenyl)-1H-1,2,3-triazol-1-yl)tetrahydro-2H-pyran-2-yl)thio)ethan-1-one]",100,230,,,
CCN(C(=O)[C@H](S[C@@H]1O[C@H](CO)[C@H](O)[C@H](n2cc(-c3cc(F)c(F)c(F)c3)nn2)[C@H]1OC)C1(O)CCC(F)(F)CC1)C1CC1 [Example 2.44.238R.I.],,> 100000,,,1000
CCN(C(=O)[C@@H](S[C@@H]1O[C@H](CO)[C@H](O)[C@H](n2cc(-c3cc(F)c(F)c(F)c3)nn2)[C@H]1OC)C1(O)CCC(F)(F)CC1)C1CC1 [Example 2.44.238S.I.],,30,,,20
CCN(CC1CC1)C(=O)C(S[C@@H]1O[C@H](CO)[C@H](O)[C@H](n2cc(-c3cc(F)c(F)c(F)c3)nn2)[C@H]1OC)C1(O)CCC(F)(F)CC1 (stereo partly drawn) [Example 2.44.239.I.],,20,,,40
CCN(Cc1ccccc1)C(=O)C(S[C@@H]1O[C@H](CO)[C@H](O)[C@H](n2cc(-c3cc(F)c(F)c(F)c3)nn2)[C@H]1OC)C1(O)CCC(F)(F)CC1 (stereo partly drawn) [Example 2.44.240.I.],,280,,,40
